One data set relates to Sphaerotheca fuliginea. Briefly: Example D: in vivo preventive test on Sphaerotheca fuliginea (powdery mildew on cucurbits). The following applies: Podosphaera fuliginea, 360 h, read-out: efficacy. Here is the method: Example D: In Vivo Preventive Test on Sphaerotheca Fuliginea (Powdery Mildew on Cucurbits)
(§1) The active ingredients were made soluble and homogenized in a mixture of Dimethyl sulfoxide/Acetone/Tween® 80 and then diluted in water to the desired concentration.
The young plants of gherkin were treated by spraying the active ingredient prepared as described above. Control plants were treated only with an aqueous solution of Acetone/Dimethyl sulfoxide/Tween® 80.
After 24 hours, the plants were contaminated by spraying the leaves with an aqueous suspension of Sphaerotheca fuliginea spores. The contaminated gherkin plants were incubated for 72 hours at 18° C. and at 100% relative humidity and then for 12 days at 20° C. and at 70-80% relative humidity.
The test was evaluated 15 days after the inoculation. 0% means an efficacy which corresponds to that of the control plants while an efficacy of 100% means that no disease was observed.

The test system of another data set is Puccinia recondita. Description: Example B: in vivo preventive test on Puccinia recondita (brown rust on wheat). Particulars: 264 h, read-out: efficacy. Here is the method: Example B: In Vivo Preventive Test on Puccinia Recondita (Brown Rust on Wheat)
as §1
(§2) The young plants of wheat were treated by spraying the active ingredient prepared as described above. Control plants were treated only with an aqueous solution of Acetone/Dimethyl sulfoxide/Tween® 80.
After 24 hours, the plants were contaminated by spraying the leaves with an aqueous suspension of Puccinia recondita spores. The contaminated wheat plants were incubated for 24 hours at 20° C. and at 100% relative humidity and then for 10 days at 20° C. and at 70-80% relative humidity.
(§3) The test was evaluated 11 days after the inoculation. 0% means an efficacy which corresponds to that of the control plants while an efficacy of 100% means that no disease was observed.

A further data set relates to Uromyces appendiculatus. Description: Example E: in vivo preventive test on Uromyces appendiculatus (bean rust). The following applies: 264 h, read-out: efficacy. Here is the method: Example E: In Vivo Preventive Test on Uromyces Appendiculatus (Bean Rust)
as §1
The young plants of bean were treated by spraying the active ingredient prepared as described above. Control plants were treated only with an aqueous solution of Acetone/Dimethyl sulfoxide/Tween® 80.
After 24 hours, the plants were contaminated by spraying the leaves with an aqueous suspension of Uromyces appendiculatus spores. The contaminated bean plants were incubated for 24 hours at 20° C. and at 100% relative humidity and then for 10 days at 20° C. and at 70-80% relative humidity.
as §3

A short description of data set [1]: Log P by HPLC on reversed phase columns (EEC directive 79/831 Annex V.A8; methods [a], [b], [c]). Particulars: method [a]. The format is physicochemical. The method, boiled down: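 Reversed-phase HPLC with LC-UV detection, 10→95% acetonitrile linear gradient; aqueous eluent 0.1% formic acid [a], 0.001 M ammonium acetate, neutral [b], or 0.1% phosphoric acid [c]. Calibrated against C3–C16 alkan-2-ones of known Log P by retention-time linear interpolation; multiple values within a method separated by "+".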

A further data set deals with Septoria tritici. Briefly: Example C: in vivo preventive test on Septoria tritici (leaf spot on wheat). Particulars: Zymoseptoria tritici, 576 h, read-out: efficacy. The protocol:
Example C: In Vivo Preventive Test on Septoria Tritici (Leaf Spot on Wheat)
as §1, §2
After 24 hours, the plants were contaminated by spraying the leaves with an aqueous suspension of Septoria tritici spores. The contaminated wheat plants were incubated for 72 hours at 18° C. and at 100% relative humidity and then for 21 days at 20° C. and at 90% relative humidity.
The test was evaluated 24 days after the inoculation. 0% means an efficacy which corresponds to that of the control plants while an efficacy of 100% means that no disease was observed.

Where [2] appears, read: 500 ppm of active ingredient, gherkin plants, preventive spray, evaluated 15 days after inoculation.
The mark [3] stands for this setting: 500 ppm of active ingredient, wheat plants, preventive spray, evaluated 11 days after inoculation.
[4] abbreviates: 500 ppm of active ingredient, bean plants, preventive spray, evaluated 11 days after inoculation.
The mark [5] stands for this setting: reversed phase HPLC column, HPLC on reversed phase columns.
Setting [6] is: 500 ppm of active ingredient, wheat plants, preventive spray, evaluated 24 days after inoculation.

Structures are written as SMILES. Read-outs that look alike come from different tables or passages of the source.

As to `NC(=S)c1cncn1CC(O)(c1ccc(Br)cc1Cl)C1(F)CC1` (stereo not drawn) [I-432, 3-[2-(4-bromo-2-chloro-phenyl)-2-(1-fluorocyclopropyl)-2-hydroxy-ethyl]imidazole-4-carbothioamide], the pest or weed control at 500 ppm with Sphaerotheca fuliginea (setting [2]), in the data set on Puccinia recondita (setting [3]), in the data set on Uromyces appendiculatus (setting [4]) and in the data set with Septoria tritici (setting [6]) was 90 to 100% throughout. In data set [1] (setting [5]), this compound returned a chromatographic logP of 1.75.
For the compound `COC(Cn1cncc1F)c1cnc(Oc2ccc(Cl)cc2)cc1C(F)(F)F` (stereo not drawn) [I-131, 2-(4-chlorophenoxy)-5-[2-(5-fluoroimidazol-1-yl)-1-methoxy-ethyl]-4-(trifluoromethyl)pyridine], the pest or weed control at 500 ppm in the data set with Sphaerotheca fuliginea (setting [2]), with Puccinia recondita (setting [3]) and in the data set with Septoria tritici (setting [6]) was 90 to 100% each time. The same compound showed a chromatographic logP in data set [1] (setting [5]) of 2.82.
Turning to `C#Cc1ccc(C(O)(Cn2cncc2C#N)C2(F)CC2)c(Cl)c1` (stereo not drawn) [I-395, 3-[2-(2-chloro-4-ethynyl-phenyl)-2-(1-fluorocyclopropyl)-2-hydroxy-ethyl]imidazole-4-carbonitrile], the pest or weed control at 500 ppm with Sphaerotheca fuliginea lay within 90 to 100%; with Puccinia recondita, 80 to 89%; in the data set on Uromyces appendiculatus it was 90 to 100%; in the data set with Septoria tritici, 90 to 100%. Further, in data set [1] (HPLC on reversed phase columns), the chromatographic logP turned out to be 2.39.
With `CC(O)(Cn1cncc1C#N)c1ccc(Oc2ccc(Br)cc2)cc1C(F)(F)F` (stereo not drawn) [I-208, 1-{2-[4-(4-bromophenoxy)-2-(trifluoromethyl)phenyl]-2-hydroxypropyl}-1H-imidazole-5-carbonitrile], the pest or weed control at 500 ppm with Sphaerotheca fuliginea (setting [2]) lay within 90 to 100%; with Puccinia recondita (setting [3]), 90 to 100%; in the data set with Uromyces appendiculatus (setting [4]), 90 to 100%; with Septoria tritici (setting [6]), 70 to 79%. This compound also showed a chromatographic logP in data set [1] (setting [5]) of 3.62.
Take `C=CC(C)C(O)(Cn1cncc1C#N)C1(Cl)CC1` (stereo not drawn) [I-311, 1-[2-(1-chlorocyclopropyl)-2-hydroxy-3-methylpent-4-en-1-yl]-1H-imidazole-5-carbonitrile]: the pest or weed control at 500 ppm lay in the range of 90 to 100% in the data set with Sphaerotheca fuliginea (setting [2]), 80 to 89% in the data set with Puccinia recondita (setting [3]), 90 to 100% with Uromyces appendiculatus (setting [4]) and 90 to 100% in the data set with Septoria tritici (setting [6]). In data set [1] (setting [5]), this compound yielded a chromatographic logP of 2.21.
As to `CC(=O)OC(Cn1cncc1F)c1cnc(Oc2ccc(Cl)cc2)cc1C(F)(F)F` (stereo not drawn) [I-133, [1-[6-(4-chlorophenoxy)-4-(trifluoromethyl)-3-pyridyl]-2-(5-fluoroimidazol-1-yl)ethyl]acetate], the pest or weed control at 500 ppm with Sphaerotheca fuliginea (setting [2]), with Puccinia recondita (setting [3]), in the data set on Uromyces appendiculatus (setting [4]) and with Septoria tritici (setting [6]) was 90 to 100% each time.
For `OC(Cn1cncc1F)c1cnc(Oc2ccc(Br)cc2)cc1C(F)(F)F` (stereo not drawn) [I-97, 1-[6-(4-bromophenoxy)-4-(trifluoromethyl)-3-pyridyl]-2-(5-fluoroimidazol-1-yl)ethanol], the pest or weed control at 500 ppm in the data set on Sphaerotheca fuliginea (setting [2]) was 90 to 100%; with Puccinia recondita (setting [3]) it was 70 to 79%; in the data set on Uromyces appendiculatus (setting [4]) it was 90 to 100%; with Septoria tritici (setting [6]) it was 90 to 100%. The chromatographic logP in data set [1] (setting [5]) is 2.25.
In the case of `CC(O)(Cn1cncc1F)c1cnc(Oc2ccc(Br)cc2)cc1C(F)(F)F` (stereo not drawn) [I-210, 2-[6-(4-bromophenoxy)-4-(trifluoromethyl)-3-pyridyl]-1-(5-fluoroimidazol-1-yl)propan-2-ol], the pest or weed control at 500 ppm fell in the range of 90 to 100% in the data set on Sphaerotheca fuliginea (setting [2]), 70 to 79% in the data set on Puccinia recondita (setting [3]), 90 to 100% with Uromyces appendiculatus (setting [4]) and 90 to 100% in the data set with Septoria tritici (setting [6]). In addition, the chromatographic logP in data set [1] (setting [5]) was 2.37.
Take `N#Cc1cncn1CC(O)c1ccc(Oc2ccc(Br)cc2)cc1Cl` (stereo not drawn) [I-40, 3-[2-[4-(4-bromophenoxy)-2-chloro-phenyl]-2-hydroxy-ethyl]imidazole-4-carbonitrile]: the pest or weed control at 500 ppm was in the range of 90 to 100% in the data set with Sphaerotheca fuliginea (setting [2]), 90 to 100% in the data set with Puccinia recondita (setting [3]), 90 to 100% in the data set with Uromyces appendiculatus (setting [4]) and 80 to 89% in the data set on Septoria tritici (setting [6]). The compound also returned a chromatographic logP in data set [1] (setting [5]) of 3.31.
Turning to `CC(O)(Cn1cncc1C#N)c1ccc(Oc2ccc(Br)cc2)cc1Cl` (stereo not drawn) [I-195, 3-[2-[4-(4-bromophenoxy)-2-chloro-phenyl]-2-hydroxy-propyl]imidazole-4-carbonitrile], the pest or weed control at 500 ppm with Sphaerotheca fuliginea (setting [2]), in the data set on Puccinia recondita (setting [3]), in the data set with Uromyces appendiculatus (setting [4]) and in the data set on Septoria tritici (setting [6]) was 90 to 100% each time. Further, the chromatographic logP in data set [1] (setting [5]) came to 3.55.
`C#CCOc1ccc(C(O)(Cn2cncc2C#N)C2(F)CC2)c(F)c1` (stereo not drawn) [I-506, 3-[2-(1-fluorocyclopropyl)-2-(2-fluoro-4-prop-2-ynoxy-phenyl)-2-hydroxy-ethyl]imidazole-4-carbonitrile]: the pest or weed control at 500 ppm with Sphaerotheca fuliginea lay within 90 to 100%; in the data set on Puccinia recondita it was 80 to 89%; with Uromyces appendiculatus, 80 to 89%; in the data set with Septoria tritici it was 90 to 100%. In data set [1] (HPLC on reversed phase column), this compound registered a chromatographic logP of 2.23.
Turning to `CCC(O)(Cn1cncc1C#N)c1ccc(F)cc1` (stereo not drawn) [I-245, 3-[2-(4-fluorophenyl)-2-hydroxy-butyl]imidazole-4-carbonitrile], the pest or weed control at 500 ppm in the data set on Sphaerotheca fuliginea (setting [2]) and in the data set with Septoria tritici (setting [6]) was 90 to 100% in each case. The chromatographic logP in data set [1] (setting [5]) stood at 1.57.
As to `N#Cc1cncn1CC(O)(c1ccc(-c2ccc(Cl)cc2)cc1Cl)C1(F)CC1` (stereo not drawn) [I-393, 3-[2-[2-chloro-4-(4-chlorophenyl)phenyl]-2-(1-fluorocyclopropyl)-2-hydroxy-ethyl]imidazole-4-carbonitrile], the pest or weed control at 500 ppm in the data set with Sphaerotheca fuliginea was in the range of 90 to 100%; with Puccinia recondita, 90 to 100%; in the data set with Uromyces appendiculatus it was 90 to 100%; in the data set on Septoria tritici, 80 to 89%. Also, the chromatographic logP in data set [1] (setting [5]) is 3.64.
As for `C[Si](C)(C)C#Cc1ccc(C(O)(Cn2cncc2C#N)C2(F)CC2)c(Cl)c1` (stereo not drawn) [I-394, 3-[2-[2-chloro-4-(2-trimethylsilylethynyl)phenyl]-2-(1-fluorocyclopropyl)-2-hydroxy-ethyl]imidazole-4-carbonitrile], the pest or weed control at 500 ppm with Sphaerotheca fuliginea (setting [2]) and in the data set on Septoria tritici (setting [6]) was 90 to 100% in each case. This compound also gave a chromatographic logP in data set [1] (HPLC on reversed phase columns) of 4.06.
For `CCCCC(O)(Cn1cncc1C#N)c1ccc(Cl)cc1` (stereo not drawn) [I-256, 3-[2-(4-chlorophenyl)-2-hydroxy-hexyl]imidazole-4-carbonitrile], the pest or weed control at 500 ppm was 90 to 100% in the data set on Sphaerotheca fuliginea (setting [2]), 80 to 89% with Puccinia recondita (setting [3]), 90 to 100% with Uromyces appendiculatus (setting [4]) and 80 to 89% in the data set on Septoria tritici (setting [6]). Also, the chromatographic logP in data set [1] (setting [5]) was 2.86.

The record behind these values is patent US20200031778A1, “NOVEL 5-SUBSTITUTED IMIDAZOLYLMETHYL DERIVATIVES” (Bayer CropScience Aktiengesellschaft, priority 2016, published 2020).
